{"source": "patent US7008957B2", "about": "“Bicyclic cyanoheterocycles, process for their preparation and their use as medicaments” (Sanofi-Aventis Deutschland GmbH, priority 2003, dated 2006)"}
{"smiles": "N#C[C@@H]1CS[C@H]2C[C@](N)(Cc3ccccc3)C(=O)N12.O=C(O)C(F)(F)F", "values": [{"measurement": "melting point", "result": 209, "unit": "°C"}]}
{"smiles": "N#C[C@@H]1CS[C@@H]2C[C@@H](N)C(=O)N12.O=C(O)C(F)(F)F", "values": [{"measurement": "melting point", "result": 173.5, "unit": "°C"}]}
